Experimental data: patent US10874745B2, “Antimicrobial peptides and methods of treating gram-negative pathogens: polar and non-polar face analogs” (priority 2017, dated 2020)
≈ marks a conversion by molar mass, not a printed value. Where “and” joins values, the source holds several entries; their conditions need not be identical. Equal entries are not always repeated. Where two headings read alike, the source gives them in different places. Non-standard residues stand in square brackets, D forms with d. Residues, ends and D or L forms follow the SMILES beside them. *: point of attachment. MeO(CH2CH2O)23CH2CH2CO = COCCOCCOCCOCCOCCOCCOCCOCCOCCOCCOCCOCCOCCOCCOCCOCCOCCOCCOCCOCCOCCOCCOCCOCCC(=O)*; dDab = NCC[C@@H](N)C(=O)O; dDap = NC[C@@H](N)C(=O)O

Tests used:
Hemolytic activity = format: cell-based, human; conditions: 1% human erythrocytes (red blood cells), pH 7.4
Protocol: (§1) Hemoglobin release was determined spectrophotometrically at 570 nm. […] […] […] With the peptides used in this study the inventors used the HC30/MIC ratio value to calculate the therapeutic index.

human red blood cells = experiment: Hemolytic activity; format: cell-based
Protocol: as §1

[1] = system: A. baumannii strains resistant to Polymyxin B and Colistin; format: cell-based
From the text: Gram-Negative Bacterial Strains used in this Study: All the A. baumannii strains used in this study were 1) obtained from the collection of Dr. Anthony A. Campagnari at the University of Buffalo and originally isolated from different patients and organs/tissues (strain 649, blood; strain 689, groin; strain 759, gluteus; strain 884, axilla; strain 985, pleural fluid); 2) were purchased from the American Type Culture Collection (ATCC, Manassas, Va., USA) (strain ATCC 17978, fatal meningitis; and strain ATCC 19606, urine); 3) obtained from MERCK (M89941, M89949, M89951, M89952, M89953, M89955 and M89963). These seven A. baumannii strains were resistant to polymyxin B and polymyxin E (Colistin).
Measurement of Antimicrobial Activity (MIC): The minimal inhibitory concentration (MIC) is defined as the lowest peptide concentration that inhibited bacterial growth. MICs were measured by a standard microtiter dilution method in Mueller Hinton (MH) medium. Briefly, cells were grown overnight at 37° C. in MH broth and were diluted in the same medium. […] The plates were incubated at 37° C. for 24 h, and the MICs were determined.

[2] = 50% hemolysis of human red blood cells after 18 hours at 37° C.
[3] = 50% hemolysis of human red blood cells after 18 hours at 37° C., read-out: HC50

SMILES	HC50 at 18 h (Hemolytic activity; human)	HC50 (human red blood cells)	HC50 (human red blood cells; [2])	MIC ([1]; strain MB9941 (Table 9C))	MIC ([1]; strain MB9949 (Table 9C))	MIC ([1]; strain MB9951 (Table 9C))	MIC ([1]; strain MB9952 (Table 9C))	MIC ([1]; strain MB9953 (Table 9C))	MIC ([1]; strain MB9955 (Table 9C))	MIC ([1]; strain MB9963 (Table 9C))	HC50 at 18 h (Hemolytic activity; [3])	Hemolysis of human red blood cells, in words (human red blood cells; FIG. 10)
CC(=O)N[C@H](CCCCN)C(=O)N[C@H](CC(C)C)C(=O)N[C@H](CCN)C(=O)N[C@H](CO)C(=O)N[C@H](CC(C)C)C(=O)N[C@H](CC(C)C)C(=O)N[C@H](CCN)C(=O)N[C@@H](C(=O)N[C@H](CC(C)C)C(=O)N[C@H](CO)C(=O)N[C@H](CCN)C(=O)N[C@H](C)C(=O)N[C@H](CCCCN)C(=O)N[C@H](C)C(=O)N[C@H](C)C(=O)N[C@H](CCCCN)C(=O)N[C@H](CC(C)C)C(=O)N[C@H](CCN)C(=O)N[C@@H](C(=O)N[C@H](CC(C)C)C(=O)N[C@H](CC(C)C)C(=O)N[C@H](CCN)C(=O)N[C@H](C)C(=O)N[C@H](CC(C)C)C(=O)N[C@H](CO)C(=O)N[C@H](CCN)C(N)=O)[C@H](C)O)[C@H](C)O [Peptide D86, Ac-KL(Dbu)SLL(Dbu)TLS(Dbu)AKAAKL(Dbu)TLL(Dbu)ALS(Dbu)-amide] (Ac-[dK][dL][dDab][dS][dL][dL][dDab][dT][dL][dS][dDab][dA][dK][dA][dA][dK][dL][dDab][dT][dL][dL][dDab][dA][dL][dS][dDab]-NH2)	> 2000 µg/mL and > 742 µM	>741.5 µM	> 742 µM	0.7 µM (≈ 1.89 µg/mL)	0.7 µM (≈ 1.89 µg/mL)	1.4 µM (≈ 3.78 µg/mL)	0.7 µM (≈ 1.89 µg/mL)	1.4 µM (≈ 3.78 µg/mL)	0.7 µM (≈ 1.89 µg/mL)	1.4 µM (≈ 3.78 µg/mL)		
COCCOCCOCCOCCOCCOCCOCCOCCOCCOCCOCCOCCOCCOCCOCCOCCOCCOCCOCCOCCOCCOCCOCCOCCC(=O)N[C@H](CCCCN)C(=O)N[C@H](CC(C)C)C(=O)N[C@H](CCN)C(=O)N[C@H](CO)C(=O)N[C@H](CC(C)C)C(=O)N[C@H](CC(C)C)C(=O)N[C@H](CCN)C(=O)N[C@@H](C(=O)N[C@H](CC(C)C)C(=O)N[C@H](CO)C(=O)N[C@H](CCN)C(=O)N[C@H](C)C(=O)N[C@H](CCCCN)C(=O)N[C@H](C)C(=O)N[C@H](C)C(=O)N[C@H](CCCCN)C(=O)N[C@H](CC(C)C)C(=O)N[C@H](CCN)C(=O)N[C@@H](C(=O)N[C@H](CC(C)C)C(=O)N[C@H](CC(C)C)C(=O)N[C@H](CCN)C(=O)N[C@H](C)C(=O)N[C@H](CC(C)C)C(=O)N[C@H](CO)C(=O)N[C@H](CCN)C(N)=O)[C@H](C)O)[C@H](C)O [Peptide D86PEG1, m-dPEG24-D86] ({MeO(CH2CH2O)23CH2CH2CO}-[dK][dL][dDab][dS][dL][dL][dDab][dT][dL][dS][dDab][dA][dK][dA][dA][dK][dL][dDab][dT][dL][dL][dDab][dA][dL][dS][dDab]-NH2)			136.7 µM	1.1 µM (≈ 4.13 µg/mL)	2.1 µM (≈ 7.88 µg/mL)	4.1 µM (≈ 15.4 µg/mL)	4.1 µM (≈ 15.4 µg/mL)	8.3 µM (≈ 31.2 µg/mL)	1.1 µM (≈ 4.13 µg/mL)	4.1 µM (≈ 15.4 µg/mL)	363 µg/mL and 137 µM	
CC(=O)N[C@H](CCCCN)C(=O)N[C@H](CC(C)C)C(=O)N[C@H](CCCCN)C(=O)N[C@H](CO)C(=O)N[C@H](CC(C)C)C(=O)N[C@H](CC(C)C)C(=O)N[C@H](CCCCN)C(=O)N[C@@H](C(=O)N[C@H](CC(C)C)C(=O)N[C@H](CO)C(=O)N[C@H](C)C(=O)N[C@H](C)C(=O)N[C@H](CCCCN)C(=O)N[C@H](CCCCN)C(=O)N[C@H](CCCCN)C(=O)N[C@H](CCCCN)C(=O)N[C@H](CC(C)C)C(=O)N[C@H](C)C(=O)N[C@@H](C(=O)N[C@H](CC(C)C)C(=O)N[C@H](CC(C)C)C(=O)N[C@H](CCCCN)C(=O)N[C@H](C)C(=O)N[C@H](CC(C)C)C(=O)N[C@H](CO)C(=O)N[C@H](CCCCN)C(N)=O)[C@H](C)O)[C@H](C)O [Peptide D88, Ac-KL(Lys)SLL(Lys)TLSAAK(Lys)(Lys)KLATLL(Lys)ALS(Lys)-amide] (Ac-[dK][dL][dK][dS][dL][dL][dK][dT][dL][dS][dA][dA][dK][dK][dK][dK][dL][dA][dT][dL][dL][dK][dA][dL][dS][dK]-NH2)	231 µg/mL and 80.6 µM	80.6 µM		0.7 µM (≈ 2.01 µg/mL)	0.7 µM (≈ 2.01 µg/mL)	0.3 µM (≈ 0.86 µg/mL)	0.3 µM (≈ 0.86 µg/mL)	0.3 µM (≈ 0.86 µg/mL)	0.3 µM (≈ 0.86 µg/mL)	0.3 µM (≈ 0.86 µg/mL)		
CC(=O)N[C@H](CCCCN)C(=O)N[C@H](CC(C)C)C(=O)N[C@H](CCN)C(=O)N[C@H](CO)C(=O)N[C@H](CC(C)C)C(=O)N[C@H](CC(C)C)C(=O)N[C@H](CCN)C(=O)N[C@@H](C(=O)N[C@H](CC(C)C)C(=O)N[C@H](CO)C(=O)N[C@H](C)C(=O)N[C@H](C)C(=O)N[C@H](CCCCN)C(=O)N[C@H](CCN)C(=O)N[C@H](CCN)C(=O)N[C@H](CCCCN)C(=O)N[C@H](CC(C)C)C(=O)N[C@H](C)C(=O)N[C@@H](C(=O)N[C@H](CC(C)C)C(=O)N[C@H](CC(C)C)C(=O)N[C@H](CCN)C(=O)N[C@H](C)C(=O)N[C@H](CC(C)C)C(=O)N[C@H](CO)C(=O)N[C@H](CCN)C(N)=O)[C@H](C)O)[C@H](C)O [Peptide D89, Ac-KL(Dbu)SLL(Dbu)TLSAAK(Dbu)(Dbu)KLATLL(Dbu)ALS(Dbu)-amide] (Ac-[dK][dL][dDab][dS][dL][dL][dDab][dT][dL][dS][dA][dA][dK][dDab][dDab][dK][dL][dA][dT][dL][dL][dDab][dA][dL][dS][dDab]-NH2)	> 3000 µg/mL and > 1.11 mM			0.7 µM (≈ 1.89 µg/mL)	0.7 µM (≈ 1.89 µg/mL)	0.7 µM (≈ 1.89 µg/mL)	0.7 µM (≈ 1.89 µg/mL)	0.7 µM (≈ 1.89 µg/mL)	0.7 µM (≈ 1.89 µg/mL)	0.7 µM (≈ 1.89 µg/mL)		
CC(=O)N[C@H](CCCCN)C(=O)N[C@H](CC(C)C)C(=O)N[C@H](CCN)C(=O)N[C@H](CO)C(=O)N[C@H](CC(C)C)C(=O)N[C@H](CC(C)C)C(=O)N[C@H](CCN)C(=O)N[C@@H](C(=O)N[C@H](CC(C)C)C(=O)N[C@H](CO)C(=O)N[C@H](CCN)C(=O)N[C@H](C)C(=O)N[C@H](CCCCN)C(=O)N[C@H](C)C(=O)N[C@H](C)C(=O)N[C@H](CCCCN)C(=O)N[C@H](CC(C)C)C(=O)N[C@H](CCN)C(=O)N[C@@H](C(=O)N[C@H](CC(C)C)C(=O)N[C@H](CC(C)C)C(=O)N[C@H](CCN)C(=O)N[C@H](C)C(=O)N[C@H](CC(C)C)C(=O)N[C@H](CO)C(=O)N[C@H](CO)C(N)=O)[C@H](C)O)[C@H](C)O [Peptide D102, Ac-KL(Dbu)SLL(Dbu)TLS(Dbu)AKAAKL(Dbu)TLL(Dbu)ALSS-amide] (Ac-[dK][dL][dDab][dS][dL][dL][dDab][dT][dL][dS][dDab][dA][dK][dA][dA][dK][dL][dDab][dT][dL][dL][dDab][dA][dL][dS][dS]-NH2)											> 2000 µg/mL and > 708 µM	basically no hemolysis
CC(=O)N[C@H](CCCCN)C(=O)N[C@H](CC(C)C)C(=O)N[C@H](CN)C(=O)N[C@H](CO)C(=O)N[C@H](CC(C)C)C(=O)N[C@H](CC(C)C)C(=O)N[C@H](CN)C(=O)N[C@@H](C(=O)N[C@H](CC(C)C)C(=O)N[C@H](CO)C(=O)N[C@H](CN)C(=O)N[C@H](C)C(=O)N[C@H](CCCCN)C(=O)N[C@H](C)C(=O)N[C@H](C)C(=O)N[C@H](CCCCN)C(=O)N[C@H](CC(C)C)C(=O)N[C@H](CN)C(=O)N[C@@H](C(=O)N[C@H](CC(C)C)C(=O)N[C@H](CC(C)C)C(=O)N[C@H](CN)C(=O)N[C@H](C)C(=O)N[C@H](CC(C)C)C(=O)N[C@H](CO)C(=O)N[C@H](CN)C(N)=O)[C@H](C)O)[C@H](C)O [Peptide D105, Ac-KL(Dpr)SLL(Dpr)TLS(Dpr)AKAAKL(Dpr)TLL(Dpr)ALS(Dpr)-amide]	> 3000 µg/mL and > 1.15 mM			0.8 µM (≈ 2.09 µg/mL)	0.8 µM (≈ 2.09 µg/mL)	3.0 µM (≈ 7.84 µg/mL)	0.8 µM (≈ 2.09 µg/mL)	3.0 µM (≈ 7.84 µg/mL)	0.8 µM (≈ 2.09 µg/mL)	1.5 µM (≈ 3.92 µg/mL)		
CC(=O)N[C@H](CCCCN)C(=O)N[C@H](CC(C)C)C(=O)N[C@H](CN)C(=O)N[C@H](CO)C(=O)N[C@H](CC(C)C)C(=O)N[C@H](CC(C)C)C(=O)N[C@H](CN)C(=O)N[C@@H](C(=O)N[C@H](CC(C)C)C(=O)N[C@H](CO)C(=O)N[C@H](C)C(=O)N[C@H](C)C(=O)N[C@H](CCCCN)C(=O)N[C@H](CN)C(=O)N[C@H](CN)C(=O)N[C@H](CCCCN)C(=O)N[C@H](CC(C)C)C(=O)N[C@H](C)C(=O)N[C@@H](C(=O)N[C@H](CC(C)C)C(=O)N[C@H](CC(C)C)C(=O)N[C@H](CN)C(=O)N[C@H](C)C(=O)N[C@H](CC(C)C)C(=O)N[C@H](CO)C(=O)N[C@H](CN)C(N)=O)[C@H](C)O)[C@H](C)O [Peptide D106, Ac-KL(Dpr)SLL(Dpr)TLSAAK(Dpr)(Dpr)KLATLL(Dpr)ALs(Dpr)-amide] (Ac-[dK][dL][dDap][dS][dL][dL][dDap][dT][dL][dS][dA][dA][dK][dDap][dDap][dK][dL][dA][dT][dL][dL][dDap][dA][dL][dS][dDap]-NH2)	889 µg/mL and 340 µM	340.2 µM		0.8 µM (≈ 2.09 µg/mL)	0.8 µM (≈ 2.09 µg/mL)	1.5 µM (≈ 3.92 µg/mL)	0.8 µM (≈ 2.09 µg/mL)	0.8 µM (≈ 2.09 µg/mL)	0.4 µM (≈ 1.05 µg/mL)	0.8 µM (≈ 2.09 µg/mL)		
